Experimental data from patent US20250144046A1, “PHARMACEUTICAL COMPOSITIONS AND METHODS OF ADMINISTRATION” (METASTX, LLC, priority 2022, published 2025).

What was measured:
PC3 cells [1] = test: Cell-monolayer scratch assay (cell motility); assay type: cell-based, human; settings: 36 hours, half of the IC50 doses from the MTT assay
Method: The motility of cancer cells is an index of their ability to come out of the primary tumor, invade, and metastasize to distant tissues. MetasTx tested Compound 1. Compound 3, and Compound 4 for their inhibitory effect on human metastatic prostate cancer (PC3) cells by using a ‘cell-monolayer scratch assay”, a reliable technique to determine the rate of cancer cell motility.
A total of 0.5×10^5 PC3 cells were plated per well on 6 well plates to obtain 95% confluent monolayers of cells after overnight incubation. The following day, a linear scratch (wound) was made using a 200 μl pipette tip and the detached cells were washed away by sterile phosphate-buffered saline (PBS). Images of scratches were captured from three different locations under a phase-contrast microscope at 4× magnification. The monolayers were treated with the desired doses of vehicle or drugs (half of the IC50 doses determined from the MTT assay). The cells were allowed to migrate for 36 hours, and images of the wound were re-captured from the same locations. The percentage of healed areas was determined using the NIH ImageJ software by measuring the distance of imported images in Microsoft Office PowerPoint (Microsoft Office Inc.) at the same magnification.

PC3 cells [2] = test: Annexin V-PE / 7-AAD apoptosis and necrosis assay (flow cytometry); assay type: cell-based, human; settings: 24 hours treatment
Method: The anti-cancer efficacy of a drug was also evaluated based on the ability of the compound to induce apoptosis and/necrosis in cancer cells. […] Compound 1. Compound 3, and Compound 4 were tested based on their ability to induce apoptosis and necrosis in vitro. The protocol was as follows:
The apoptotic death of cells was determined using an Annexin V-PE apoptosis detection kit (Cat #559763; BD Biosciences. CA. USA) according to the manufacturer's protocol. In brief. PC3 cells were treated with DMSO (0.3%). IPA3. Compound 1. Compound 3 and Compound 4 for 24 hours. At the end of treatment, cells were trypsinized, washed with PBS and stained with annexin V-Phycoerythrin (PE) and 7-Amino-Actinomycin (7-AAD). The stained cells were analyzed using a flow cytometer within 1 h of staining.

PC3 cells [3] = test: MTT assay, cancer cell metabolic activity and proliferation; assay type: cell-based; settings: Homo sapiens, PC-3, 24 h treatment, read-out: IC50, anti-proliferative effect (MTT)
Method: A MTT (3-[4,5-dimethylthiazol-2-yl]-2,5 diphenyl tetrazolium bromide) assay was used to assess cancer cell metabolic activity and proliferation.
The protocol was as follows: • A total of 4000 PC3 cells were seeded per well in 96-well plates. Following attachment, cells were treated with vehicle control DMSO, IPA3, Compound 1, Compound 3, and Compound 4 at various doses as indicated for 24 h. Growth inhibition was determined by MTT [3-(4,5-dimethylthiazol-2-yl)-2,5-diphenyltetrazolium bromide] (Sigma-Aldrich, St. Louis, MO, USA; catalog No. M2128) assay. The MTT solution was added to the media at a final concentration of 0.8 mg/mL and cells were incubated at 37° C. for 2 hours. After aspiration of media, formazan crystals were dissolved in 100 μl of DMSO. Optical densities were measured at 570 nm using a SynergyHT plate reader (BioTek. Winooski. […]. USA). To calculate IC50 values. GraphPad Prism Software was used (GraphPad Software. San Diego, CA. USA).

PAK5 = PAK5 (Homo sapiens, UniProt Q9P286); settings: group II PAK; cited from earlier work
Sequence of PAK5 (Q9P286 whole entry): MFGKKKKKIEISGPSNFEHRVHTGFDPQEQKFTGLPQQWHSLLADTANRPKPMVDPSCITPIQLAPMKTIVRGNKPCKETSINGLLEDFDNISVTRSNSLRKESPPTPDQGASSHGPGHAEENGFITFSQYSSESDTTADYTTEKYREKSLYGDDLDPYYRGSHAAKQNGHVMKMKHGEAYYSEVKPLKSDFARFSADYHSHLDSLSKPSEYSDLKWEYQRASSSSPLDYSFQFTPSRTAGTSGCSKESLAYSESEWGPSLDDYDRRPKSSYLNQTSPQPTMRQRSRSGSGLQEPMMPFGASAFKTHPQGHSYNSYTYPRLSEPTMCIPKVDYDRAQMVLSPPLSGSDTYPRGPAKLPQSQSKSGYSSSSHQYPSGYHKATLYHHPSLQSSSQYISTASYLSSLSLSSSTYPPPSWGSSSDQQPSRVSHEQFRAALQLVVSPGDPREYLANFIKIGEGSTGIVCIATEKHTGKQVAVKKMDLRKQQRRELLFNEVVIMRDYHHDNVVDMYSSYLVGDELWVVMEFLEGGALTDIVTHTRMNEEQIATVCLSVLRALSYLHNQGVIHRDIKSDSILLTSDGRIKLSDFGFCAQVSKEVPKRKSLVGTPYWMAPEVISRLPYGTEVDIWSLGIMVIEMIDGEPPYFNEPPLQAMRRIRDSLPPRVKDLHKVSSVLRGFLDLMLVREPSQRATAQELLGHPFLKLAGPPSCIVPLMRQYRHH

PAK6 = PAK6 (Homo sapiens, UniProt Q9NQU5); settings: group II PAK; cited from earlier work
Sequence of PAK6 (Q9NQU5 whole entry, species assumed): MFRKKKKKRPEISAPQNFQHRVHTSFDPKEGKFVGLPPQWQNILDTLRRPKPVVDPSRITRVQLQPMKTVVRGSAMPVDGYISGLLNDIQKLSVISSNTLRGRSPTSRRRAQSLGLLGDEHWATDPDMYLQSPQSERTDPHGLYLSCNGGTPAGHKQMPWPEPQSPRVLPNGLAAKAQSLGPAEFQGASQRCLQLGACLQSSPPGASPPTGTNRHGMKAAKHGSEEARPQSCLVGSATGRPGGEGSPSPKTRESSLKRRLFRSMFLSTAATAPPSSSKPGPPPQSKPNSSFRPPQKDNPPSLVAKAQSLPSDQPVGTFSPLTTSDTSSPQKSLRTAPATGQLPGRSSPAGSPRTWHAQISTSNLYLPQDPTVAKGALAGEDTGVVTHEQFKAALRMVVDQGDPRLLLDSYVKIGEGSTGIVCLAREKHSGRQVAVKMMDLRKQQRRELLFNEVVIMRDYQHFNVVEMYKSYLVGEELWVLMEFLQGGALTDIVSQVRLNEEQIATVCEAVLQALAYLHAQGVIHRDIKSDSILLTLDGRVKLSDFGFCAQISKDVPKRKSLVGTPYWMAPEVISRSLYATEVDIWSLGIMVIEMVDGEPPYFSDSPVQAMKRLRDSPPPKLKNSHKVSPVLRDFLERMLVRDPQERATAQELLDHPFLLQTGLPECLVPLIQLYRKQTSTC

PAK4 = PAK4 (Homo sapiens, UniProt O96013); settings: group II PAK; cited from earlier work
Sequence of PAK4 (O96013 whole entry, species assumed): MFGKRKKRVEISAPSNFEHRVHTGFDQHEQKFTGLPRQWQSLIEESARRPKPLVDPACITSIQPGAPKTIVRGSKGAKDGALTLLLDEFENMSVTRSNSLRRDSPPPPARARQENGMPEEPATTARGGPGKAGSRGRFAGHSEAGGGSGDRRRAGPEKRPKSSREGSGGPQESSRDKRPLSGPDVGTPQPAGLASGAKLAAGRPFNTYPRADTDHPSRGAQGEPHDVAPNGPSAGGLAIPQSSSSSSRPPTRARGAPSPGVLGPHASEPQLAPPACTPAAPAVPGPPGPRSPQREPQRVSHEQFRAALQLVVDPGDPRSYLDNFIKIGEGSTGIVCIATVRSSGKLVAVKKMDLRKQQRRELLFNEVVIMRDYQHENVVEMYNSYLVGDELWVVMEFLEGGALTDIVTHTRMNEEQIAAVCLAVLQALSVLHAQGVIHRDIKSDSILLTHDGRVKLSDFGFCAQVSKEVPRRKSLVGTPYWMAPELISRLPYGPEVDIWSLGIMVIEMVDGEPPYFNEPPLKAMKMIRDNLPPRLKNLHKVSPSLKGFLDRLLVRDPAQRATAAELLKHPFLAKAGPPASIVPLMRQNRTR

[4] = cited from earlier work

Structure (SMILES)	inhibition of PC3 cell motility compared to vehicle (DMSO)-treated control (PC3 cells [1])	induction of apoptosis and necrosis compared to vehicle (DMSO)-treated control (PC3 cells [2])	total cell death compared to IPA-3 (PC3 cells [2])	IC50 (PC3 cells [3]) [µM]	inhibition of PAK5 (PAK5)	inhibition of PAK6 (PAK6)	inhibition of PAK4 (PAK4)	stability in plasma [4]
Oc1ccc2ccccc2c1CCCc1c(O)ccc2ccccc12 [Compound 4]	significant anti-cancer cell motility effects	robust induction of apoptosis and necrosis	superior efficacy in inducing total cell death	15.5				
Oc1ccc2ccccc2c1CSCc1c(O)ccc2ccccc12 [Compound 3]	significant anti-cancer cell motility effects	robust induction of apoptosis and necrosis	superior efficacy in inducing total cell death	22.2				
Oc1ccc2ccccc2c1CSc1c(O)ccc2ccccc12 [Compound 1]	did not show significant inhibition	robust induction of apoptosis and necrosis		50.2				
Oc1ccc2ccccc2c1SSc1c(O)ccc2ccccc12 [IPA-3, 2,2″-dihydroxy-1, 1′-dinaphthyldisulfide]	did not show significant inhibition	robust induction of apoptosis and necrosis		28	does not inhibit	does not inhibit	does not inhibit	not very stable
